One assay has as its target T1, WEE1 (Homo sapiens, UniProt P30291+Q96SW2).
T1 construct: C-terminal ePL-tagged (DiscoverX, Fremont, CA) full-length WEE1 expression construct; expressed in transfected cells; host or cells: LentiX-HEK293T (Invitrogen), lentiviral transduction; co-expressing GSPT1-GN (G576N, lacking the first 158 amino acids)
As to the kind of experiment: WEE1-ePL degradation assay (LentiX-WEE1-ePL-GSPT1-ND cells, InCELL Hunter luminescence, 4 h). The class given is cell-based. The note with it: 293T-LentiX WEE1-ePL cells; for DC50: read-out: 293T-LentiX WEE1-ePL Degradation 4 hr (EC50). The method, boiled down:
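HEK293T cells stably expressing C-terminal ePL-tagged full-length WEE1, 2500 cells/well, treated 4 h at 37° C with a 10-point 3-fold series from 1 or 10 uM. Remaining WEE1-ePL read by InCELL Hunter luminescence after 30 min. EC50 came from a four-parameter logistic fit, with Ymax set from DMSO control.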

A further assay concerns MKN45 cells. As to the kind of experiment: MKN45 cell proliferation assay (Cell-Titer-Glo, 120 h). The class given is cell-based. The note with it: for EC50: Homo sapiens, MKN-45, 120 h, Cell-Titer-Glo, read-out: MKN45 Cell Prolif. 120 hr (EC50); for MKN45 Cell Prolif. 120 hr (Ymin-Obs): minimal percent of DMSO control observed in the concentrations tested. The method, boiled down:
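Growth inhibition was read as blank-corrected Cell-Titer-Glo luminescence expressed as percent DMSO control after 120 h at 37 C, 400 cells/well. Compounds tested in triplicate as 10-point half-log series from 1 or 10 uM, 0.1% DMSO; four-parameter fit gave EC50, and lowest observed percent control was reported as Ymin-obs.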

Setting [1] is: lower limit of the fit (0 = luciferase inhibitor, Ymax = DMSO control).
[2] abbreviates: lower limit of the fit (Ymin=0 luciferase inhibitor, Ymax DMSO control).

By EC50 is commonly meant the concentration at which the effect is half-maximal.

Where two headings read alike, the source gives them in different places. Some results are limits rather than exact numbers.

Take `Cc1ccc2cc(CN3CC[C@H](Oc4ccc5c(c4)CN(C4(C)CCC(=O)NC4=O)C5=O)C3)ccc2n1` (stereo partly drawn) [3-methyl-3-(5-{[(3S)-1-[(2-methylquinolin-6-yl)methyl]pyrrolidin-3-yl]oxy}-1-oxo-2,3-dihydro-1H-isoindol-2-yl)piperidine-2,6-dione]: the “293T-LentiX WEE1-ePL Degradation 4 hr (Ymin)” value on WEE1 (setting [1]) is on record as 69.05. Besides, the DC50 on WEE1 turned out to be 5070 nM. Also, in the assay on MKN45 cells (growth inhibition), the EC50 was more than 10000 nM. Moreover, the “MKN45 Cell Prolif. 120 hr (Ymin-Obs)” value in the assay with MKN45 cells turned out to be 83.56.

On to `O=C1CCC(N2Cc3cc(O[C@H]4CCN(Cc5ccc6nc(C7CCOCC7)ncc6c5)C4)ccc3C2=O)C(=O)N1` (stereo partly drawn) [3-(5-{[(3S)-1-{[2-(oxan-4-yl)quinazolin-6-yl]methyl}pyrrolidin-3-yl]oxy}-1-oxo-2,3-dihydro-1H-isoindol-2-yl)piperidine-2,6-dione], for which, on WEE1 (setting [1]), the “293T-LentiX WEE1-ePL Degradation 4 hr (Ymin)” value amounted to 30.5. Also, the DC50 on WEE1 came out at 32.6 nM. Further, the EC50 with MKN45 cells (growth inhibition) amounted to 21.4 nM. Moreover, the “MKN45 Cell Prolif. 120 hr (Ymin-Obs)” value in the assay with MKN45 cells was 6.11.

Take `O=C1CCC(N2Cc3cc(O[C@H]4CCN(Cc5ccnc(-c6ccccc6)c5)C4)ccc3C2=O)C(=O)N1` (stereo partly drawn) [3-(1-oxo-5-{[(3S)-1-[(2-phenylpyridin-4-yl)methyl]pyrrolidin-3-yl]oxy}-2,3-dihydro-1H-isoindol-2-yl)piperidine-2,6-dione]: the “293T-LentiX WEE1-ePL Degradation 4 hr (Ymin)” value at WEE1 (setting [1]) came to 38. Further, the DC50 at WEE1 is 6.94 nM. The EC50 in the assay on MKN45 cells (growth inhibition) is 23 nM. Besides, the “MKN45 Cell Prolif. 120 hr (Ymin-Obs)” value with MKN45 cells is listed as 9.19.

For the molecule `O=C1CCC(N2C(=O)c3ccc(O[C@H]4CCN(Cc5ccnc6ccccc56)C4)cc3C2=O)C(=O)N1` (stereo partly drawn) [2-(2,6-dioxopiperidin-3-yl)-5-{[(3S)-1-[(quinolin-4-yl)methyl]pyrrolidin-3-yl]oxy}-2,3-dihydro-1H-isoindole-1,3-dione], the “293T-LentiX WEE1-ePL Degradation 4 hr (Ymin)” value on WEE1 (setting [1]) is 38.05. Further, at WEE1, the DC50 was determined as 1230 nM. Also, the half-maximal effective concentration (EC50) with MKN45 cells (growth inhibition) amounted to 2510 nM. The “MKN45 Cell Prolif. 120 hr (Ymin-Obs)” value in the assay on MKN45 cells is listed as 48.18.

Regarding `CN(C)C(=O)c1ccc2cc(CN3CC[C@H](Oc4ccc5c(c4)CN(C4CCC(=O)NC4=O)C5=O)C3)ccc2n1` (stereo partly drawn) [6-{[(3S)-3-{[2-(2,6-dioxopiperidin-3-yl)-1-oxo-2,3-dihydro-1H-isoindol-5-yl]oxy}pyrrolidin-1-yl]methyl}-N,N-dimethylquinoline-2-carboxamide], the “293T-LentiX WEE1-ePL Degradation 4 hr (Ymin)” value on WEE1 (setting [1]) is 29.42. Moreover, at WEE1, the DC50 worked out at 9.05 nM. For the same molecule, the EC50 with MKN45 cells (growth inhibition) was 17.5 nM. For the same molecule, the “MKN45 Cell Prolif. 120 hr (Ymin-Obs)” value in the assay with MKN45 cells came to 8.56.

In the case of `COC[C@@H]1CCC[C@@H]1c1ccc2cc(CN3CC[C@H](Oc4ccc5c(c4)CN(C4CCC(=O)NC4=O)C5=O)C3)ccc2n1` (stereo partly drawn) [3-(5-{[(3S)-1-({2-[(1S,2R)-2-(methoxymethyl)cyclopentyl]quinolin-6-yl}methyl)pyrrolidin-3-yl]oxy}-1-oxo-2,3-dihydro-1H-isoindol-2-yl)piperidine-2,6-dione], at WEE1 (setting [2]), the “293T-LentiX WEE1-ePL Degradation 4 hr (Ymin)” value came out at 26.36. Further, the DC50 at WEE1 amounted to 0.334 nM. In addition, in the assay on MKN45 cells, the EC50 amounted to 5.76 nM and the “MKN45 Cell Prolif. 120 hr (Ymin-Obs)” value is listed as 11.34.

On to `COCc1ccc2cc(CN3CC[C@H](Oc4ccc5c(c4)CN(C4CCC(=O)NC4=O)C5=O)C3)ccc2n1` (stereo partly drawn) [3-(5-{[(3S)-1-{[2-(methoxymethyl)quinolin-6-yl]methyl}pyrrolidin-3-yl]oxy}-1-oxo-2,3-dihydro-1H-isoindol-2-yl)piperidine-2,6-dione], for which, on WEE1 (setting [1]), the “293T-LentiX WEE1-ePL Degradation 4 hr (Ymin)” value is on record as 30.5. Also, at WEE1, the DC50 worked out at 5.55 nM. For the same molecule, the 50% effective concentration (EC50) in the assay with MKN45 cells (growth inhibition) came to 20.5 nM. In addition, the “MKN45 Cell Prolif. 120 hr (Ymin-Obs)” value in the assay with MKN45 cells was determined as 8.38.

`CO[C@@H]1CCC[C@H]1c1ccc2cc(CN3CC[C@H](Oc4ccc5c(c4)CN(C4CCC(=O)NC4=O)C5=O)C3)ccc2n1` (stereo partly drawn) [3-(5-{[(3S)-1-({2-[(1S,2R)-2-methoxycyclopentyl]quinolin-6-yl}methyl)pyrrolidin-3-yl]oxy}-1-oxo-2,3-dihydro-1H-isoindol-2-yl)piperidine-2,6-dione]: at WEE1 (setting [2]), the “293T-LentiX WEE1-ePL Degradation 4 hr (Ymin)” value is given as 37.17. In addition, the DC50 at WEE1 is 3.01 nM. In addition, in the assay with MKN45 cells, the EC50 is 12 nM and the “MKN45 Cell Prolif. 120 hr (Ymin-Obs)” value is 13.63.

These data come from US20240067632A1, “WEE1 Degrading Compounds and Uses Thereof” (Bristol-Myers Squibb Company, priority 2022, published 2024).
